3 compounds from patent publication US6740662B1, “Naphthyridine derivatives” (Yamanouchi Pharmaceutical Co., Ltd., priority 1999, dated 2004) can be followed below.

As a reminder, the melting point is the temperature, or range, at which the solid turns liquid.

The test system of data set [1] is P450 drug metabolizing enzyme present in the liver microsome. Description: In vitro drug metabolism test using liver microsome. The format is in vitro ADME. Conditions: human and rat liver microsome, test compound 20 ng/ml, 37° C., 10, 20 and 30 minutes, residual ratio. The protocol: 1) Human and rat liver microsome suspension (human microsome: Xenotech, rat microsome: Charles River) was diluted with 100 mM Na-K phosphate buffer (pH 7.4) to a protein concentration of 0.5 mg/ml. To a 100 μl portion of this suspension were added 2 μl of a test compound solution (a 10 μg/ml acetonitrile solution), 500 μl of 200 mM Na-K phosphate buffer (pH 7.4), 50 μl of 1 mM EDTA-NaOH (pH 7.4) and 200 μl of purified water, thereby preparing a substrate solution (concentration in the reaction solution: liver microsome (as the protein content) 0.05 mg/ml, test compound 20 ng/ml, 100 mM Na-K phosphate buffer, 0.1 mM EDTA-NaOH).
2) An NADPH production system was prepared by mixing 42 mg of NADP, 5 ml of 100 mM […] (G6P) and 5 ml of 100 mM MgCl2, and adding 57 μl of G6P dehydrogenase (about 1750 U/5 mg/ml) to the mixture. This was heated at 37° C. for 5 minutes and then ice-cooled until its use.
3) A 900 μl portion of the substrate solution was pre-incubated at 37° C. for 5 minutes, and then 100 μl of the NADPH production system was added thereto, following by reaction at 37° C. for 10, 20 and 30 minutes. After termination of the reaction by adding 2 ml of ethyl acetate, the whole was ice-cooled. In this connection, a control sample was prepared by adding 100 μl of the NADPH production system after adding 2 ml of ethyl acetate (0 minute reaction).
4) To the reaction solution was added 100 μl of an internal standard substance having a predetermined concentration (an acetonitrile solution), 1 ml of 0.5 M phosphoric acid and 2 ml of ethyl acetate, followed by shaking for 10 minutes. After 10 minutes of centrifugation at 2,500 rpm, the ethyl acetate layer was separated and evaporated to dryness, and the residue was dissolved in 100 μl of an HPLC mobile phase solvent. The test compound was eluted after about 12 minutes, and the internal standard substance after about 16 minutes, under the following conditions. (HPLC measuring conditions mobile phase: acetonitrile/20 mM ammonium acetate=2:3 (v/v), column: Discovery RP Amide C16, 4.6×35 mm (SUPELCO), flow rate: 0.8 ml/min., detection: UV 286 nm)
5) A ratio (residual ratio) of the peak height ratio after 10, 20 or 30 minutes of the reaction to the peak height ratio of each test compound in the control (peak height ratio to the internal standard substance) was calculated.

A short description of data set [2]: Oral absorbability and pharmacokinetic profile evaluation test using type IV PDE inhibitory activity as the index. The format is in vivo. Conditions: orally administered to male Fisher rat at 3 mg/kg; plasma type IV PDE inhibitory activity as index; in comparison with a comparative compound. The protocol:
Test Example 3. Oral absorbability and pharmacokinetic profile evaluation test using type IV PDE inhibitory activity as the index
The following assay was carried out in order to evaluate oral absorbability and pharmacokinetic profiles of the type IV PDE-inhibiting compounds of the invention.
1) Each test compound suspended in purified water containing 0.5% methyl cellulose was orally administered to a seven-week-old male Fisher rat at a dose of 3 mg/kg. In the control group, a solvent (0.5% methyl cellulose in purified water, 3 ml/kg) was administered in the same manner. After the oral administration, blood samples were periodically collected in the presence of heparin from the caudal vein of each rat under ether anesthesia, and plasma was prepared in the usual way.
2) The plasma prepared from each rat administered with the test compound or solvent was added to the type IV PDE measuring system shown in the above Test Example 1 so as to be a final concentration of 0.1%, and the type IV PDE inhibitory activity was measured.

Molecules are shown by their SMILES.

Consider `CCn1c(=O)c(-c2cccc(C(=O)O)c2)c(-c2cccc(Cl)c2)c2ccc(C)nc21` [Example 21, 3-[4-(3-chlorophenyl)-1-ethyl-7-methyl-2-oxo-1,2-dihydro-1,8-naphthyridin-3-yl]benzoic acid], for which the melting point was 254 to 256 °C. Moreover, the “metabolism by the P450 drug metabolizing enzyme present in the liver microsome” value (“metabolism” below) in data set [1] is reported as “hardly metabolized”. Further, the “oral absorbability and metabolic stability” value in data set [2] was “good oral absorbability and metabolic stability”.
The compound `CCn1c(=O)c(CCC(=O)O)c(C2CCCCC2)c2ccc(C)nc21` [Example 47, 3-(4-cyclohexyl-1-ethyl-7-methyl-2-oxo-1,2-dihydro-1,8-naphthyridin-3-yl)propanoic acid] yielded a melting point of 155 to 156 °C. Besides, the “metabolism” value in data set [1] is reported as “hardly metabolized”. In addition, in data set [2], the “oral absorbability and metabolic stability” value is “good oral absorbability and metabolic stability”.
`CCn1c(=O)c(CCC(=O)O)c(-c2cccc(Cl)c2)c2ccc(C=NO)nc21` [Example 43, 3-[4-(3-chlorophenyl)-1-ethyl-7-hydroxyiminomethyl-2-oxo-1,2-dihydro-1,8-naphthyridin-3-yl]propanoic acid] registered a melting point of 234 to 238 °C. Further, the “metabolism” value in data set [1] is listed as “hardly metabolized”. Moreover, the “oral absorbability and metabolic stability” value in data set [2] is “good oral absorbability and metabolic stability”.
